Our source for the IC50 values is patent publication US5130323A, “Pyrrolidine derivatives” (Fujisawa Pharmaceutical Co., Ltd., priority 1988, dated 1992).

For one assay, the target named is T1, TXA2 synthetase (Homo sapiens, UniProt P24557).
T1 construct: human platelet microsome; purchased Ran Biochem, Israel; host or cells: human platelet microsomes, aspirin treated (APM)
T1 sequence (P24557 1-533): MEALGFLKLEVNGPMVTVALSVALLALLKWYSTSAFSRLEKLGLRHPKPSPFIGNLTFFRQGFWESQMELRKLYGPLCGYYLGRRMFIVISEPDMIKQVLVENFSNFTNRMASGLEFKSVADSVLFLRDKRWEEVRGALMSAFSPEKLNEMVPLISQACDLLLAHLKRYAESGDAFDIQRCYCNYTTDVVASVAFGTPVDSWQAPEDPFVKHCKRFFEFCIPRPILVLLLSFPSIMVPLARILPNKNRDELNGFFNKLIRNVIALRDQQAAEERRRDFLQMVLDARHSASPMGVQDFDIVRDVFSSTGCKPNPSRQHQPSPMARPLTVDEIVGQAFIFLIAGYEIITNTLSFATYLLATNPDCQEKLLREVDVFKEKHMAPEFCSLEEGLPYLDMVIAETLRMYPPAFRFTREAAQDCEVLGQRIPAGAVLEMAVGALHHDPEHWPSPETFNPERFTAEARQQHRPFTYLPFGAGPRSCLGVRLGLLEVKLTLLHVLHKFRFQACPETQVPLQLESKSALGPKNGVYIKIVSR
Put plainly: Inhibition of TXA2 synthetase. The class given is biochemical. As to conditions: aspirin treated human platelet microsome, PGH2 as substrate, 25° C., TXB2 measured by radioimmunoassay; read-out: IC50 (Inhibition concentration of TXB2 generation by 50%). Here is the method: Aspirin treated human platelet microsome APM, Ran Biochem, Israel) was used as a source of TXA2 synthetase. APM was suspended in 50 mM Tris/100 mM NaCl buffer (pH 7.5). 10 μl of test compound solution was added to 90 μl of APM suspension and incubated at 25° C. for 3 min. And then, 2 μl of PGH2 (10 μg/ml in aceton, Ran Biochem.) was added. After 3-min incubation period, the reaction was terminated by adding 10 μl of FeCl2 solution (25 mM in H2 O), and set aside at room temperature for 15 min and then on ice. The reaction mixture was centrifuged at 10000 rpm for 5 min at 4° C. TXB2 in the supernatant was measured by radioimmunoassay. IC50 (Inhibition concentration of TXB2 generation by 50%) were graphically determined.

Assay [1] deals with human platelet aggregation induced by U46619. In words: Inhibition of human platelet aggregation induced by U46619. The class given is cell-based. As to conditions: human platelet rich plasma, U46619 final 1.0 μM, 37° C.; read-out: IC50 (Inhibition concentration of platelet aggregation by 50%). Here is the method:
In the following test, the used 9,11-methanoepoxy PGH2 (U46619) is characterized pharmacologically as TXA2 mimetic agent and widely used for evaluating TXA2 antagonism of test compounds (for example, vide The Journal of Pharmacology and Experimental Therapeutics Vol. 234, pp 435-441).
Human blood was obtained from healthy male volunteers and mixed with 3.8% (w/v) sodium citrate in a ratio of 9:1. Platelet rich plasma (PRP) was prepared from the citrated blood by centrifugation at 150×g for 15 min. Platelet aggregation in PRP was studied photometrically using an aggregometer (NKK HAEMATRACER 1 . To the 225 μl of PRP, 25 μl of test compound solution was added, and then stirred at 1000 rpm for 2 min at 37° C. To the solution, 5 μl of U46619 (final 1.0 μM) was added as an aggregating inducer. IC50 (Inhibition concentration of platelet aggregation by 50% were determined graphically.

Each structure is given as a SMILES string.

In the case of `O=C(O)CCC/C=C\[C@@H]1C[C@@H](NS(=O)(=O)c2ccc(Cl)cc2)CN1Cc1cccnc1` [test compound (1), (2S,4R)-2-[(Z)-5-Carboxy-1-pentenyl]-4-(4-chlorophenylsulfonylamino)-1-(3-pyridylmethyl)pyrrolidine], the IC50 came out at 0.046 µM on TXA2 synthetase and 0.27 µM in assay [1].
